Results published in patent publication US4267180A, “Novel antibacterial amide compounds and process means for producing the same” (Warner-Lambert Company, priority 1980, dated 1981).

Assays:
Experiment in all cases: Minimal Inhibitory Concentration, in vitro
Assay type in all cases: cell-based
Design in all cases: unit not given here
[1] = tested on: Enterobacter Cloacae IMM-11
Text: (§1) The compounds of the invention are new chemical compounds that are useful as pharmacological agents and especially as broad spectrum antibacterial agents. They are active in vitro against strains of both gram-positive and gram-negative bacteria.
(§2) Minimal Inhibitory Concentration

[2] = tested on: Klebsiella Pneumoniae MGH-2
Text: as §1, §2

[3] = tested on: Proteus Vulgaris 1810
Text: as §1, §2

[4] = tested on: Pseudomonas Aeruginosa #28
Text: as §1, §2

[5] = tested on: Pseudomonas Aeruginosa UI-18
Text: as §1, §2

[6] = tested on: Serratia Marcescens IMM-16
Text: as §1, §2

[7] = tested on: Staph Aureus UC-76
Text: as §1, §2

Compound	Minimal Inhibitory Concentration [1]	Minimal Inhibitory Concentration [2]	Minimal Inhibitory Concentration [3]	Minimal Inhibitory Concentration [4]	Minimal Inhibitory Concentration [5]	Minimal Inhibitory Concentration [6]	Minimal Inhibitory Concentration [7]
CC(=O)NCCCCC(NC(C)=O)C(=O)Nc1ccc(-c2ncc(C(=O)N[C@@H](C(=O)N[C@@H]3C(=O)N4[C@@H]3SC(C)(C)[C@@H]4C(=O)O)c3ccc(O)cc3)c(O)n2)cc1 (mixture of isomers) [N,N'-Diacetyl-DL-Lysyl, N-[2-[4-(N,N'-Diacetyl-DL-lysylamino)phenyl]-4-hydroxy-5-pyrimidinylcarbonyl]amoxicillin]	25	> 50	6.3	1.6	3.1	50	1.6
CC(=O)NC(C)C(=O)Nc1ccc(-c2ncc(C(=O)N[C@@H](C(=O)N[C@@H]3C(=O)N4[C@@H]3SC(C)(C)[C@@H]4C(=O)O)c3ccc(O)cc3)c(O)n2)cc1 (mixture of isomers) [N-Acetyl-DL-Alanyl, N-[2-[4-(N-Acetyl-DL-alanylamino)phenyl]-4-hydroxy-5-pyrimidinyl-carbonyl]amoxicillin]	6.3	25	0.8	1.6	1.6	6.3	0.2
CC(=O)NC(CC(C)C)C(=O)Nc1ccc(-c2ncc(C(=O)N[C@@H](C(=O)N[C@@H]3C(=O)N4[C@@H]3SC(C)(C)[C@@H]4C(=O)O)c3ccc(O)cc3)c(O)n2)cc1 (mixture of isomers) [N-Acetyl-DL-Leucyl, N-[2-[4-(N-Acetyl-DL-leucylamino)phenyl]-4-hydroxy-5-pyrimidinylcarbonyl]amoxicillin]	25	> 50	3.1	3.1	3.1	25	1.6
CSCCC(NC(C)=O)C(=O)Nc1ccc(-c2ncc(C(=O)N[C@@H](C(=O)N[C@@H]3C(=O)N4[C@@H]3SC(C)(C)[C@@H]4C(=O)O)c3ccc(O)cc3)c(O)n2)cc1 (mixture of isomers) [N-Acetyl-DL-Methionyl, N-[2-[4-(N-acetyl-DL-methionylamino)phenyl]-4-hydroxy-5-pyrimidinylcarbonyl]amoxicillin]	12.5	50	3.1	1.6	1.6	12.5	1.6
CC(=O)N1CCCC1C(=O)Nc1ccc(-c2ncc(C(=O)N[C@@H](C(=O)N[C@@H]3C(=O)N4[C@@H]3SC(C)(C)[C@@H]4C(=O)O)c3ccc(O)cc3)c(O)n2)cc1 (mixture of isomers) [N-Acetyl-DL-Prolyl, N-[2-[4-(N-Acetyl-DL-prolylamino)phenyl]-4-hydroxy-5-pyrimidinylcarbonyl]amoxicillin]	12.5	50	1.6	1.6	1.6	12.5	0.8
CC(=O)NC(C(=O)Nc1ccc(-c2ncc(C(=O)N[C@@H](C(=O)N[C@@H]3C(=O)N4[C@@H]3SC(C)(C)[C@@H]4C(=O)O)c3ccc(O)cc3)c(O)n2)cc1)C(C)C (mixture of isomers) [N-Acetyl-DL-Valyl, N-[2-[4-(N-Acetyl-DL-valylamino)phenyl]-4-hydroxy-5-pyrimidinylcarbonyl]amoxicillin]	25	> 50	3.1	1.6	1.6	25	3.1
CC1(C)S[C@@H]2[C@H](NC(=O)[C@H](NC(=O)c3cnc(-c4ccc(NC(=O)[C@@H]5CCC(=O)N5)cc4)nc3O)c3ccc(O)cc3)C(=O)N2[C@H]1C(=O)O [5-Oxo-L-Prolyl, N-[2-[4-((5-oxo-L-prolyl)amino)phenyl]-4-hydroxy-5-pyrimidinylcarbonyl]amoxicillin]	6.3	50	0.8	0.8	1.6	12.5	0.8
CC1(C)S[C@@H]2[C@H](NC(=O)[C@H](NC(=O)c3cnc(-c4ccc(NC(=O)CN5CCCC5=O)cc4)nc3O)c3ccc(O)cc3)C(=O)N2[C@H]1C(=O)O [(2-Oxo-1-pyrrolidinyl)acetyl, N-[2-[4-[(2-Oxo-1-pyrrolidinyl)acetylamino]phenyl]-4-hydroxy-5-pyrimidinylcarbonyl]amoxicillin]	12.5	25	1.6	1.6	3.1	25	1.6
CC(=O)NCC(=O)Nc1ccc(-c2ncc(C(=O)N[C@@H](C(=O)N[C@@H]3C(=O)N4[C@@H]3SC(C)(C)[C@@H]4C(=O)O)c3ccc(O)cc3)c(O)n2)cc1 [N-Acetyl Glycyl]	6.3	50	1.6	1.6	6.3	6.3	0.8
CC(=O)N[C@@H](C)C(=O)Nc1ccc(-c2ncc(C(=O)N[C@@H](C(=O)N[C@@H]3C(=O)N4[C@@H]3SC(C)(C)[C@@H]4C(=O)O)c3ccc(O)cc3)c(O)n2)cc1 [N-Acetyl-L-Alanyl, N-[2-[4-(N-acetyl-L-alanylamino)phenyl]-4-hydroxy-5-pyrimidinylcarbonyl]amoxicillin]	6.3	50	0.8	1.6	0.8	12.5	0.4
CC(=O)N1CC(O)C[C@H]1C(=O)Nc1ccc(-c2ncc(C(=O)N[C@@H](C(=O)N[C@@H]3C(=O)N4[C@@H]3SC(C)(C)[C@@H]4C(=O)O)c3ccc(O)cc3)c(O)n2)cc1 (stereo partly drawn) [N-Acetyl-L-Hydroxyprolyl, N-[2-[4-(N-Acetyl-L-hydroxyprolylamino)phenyl]-4-hydroxy-5-pyrimidinylcarbonyl]amoxicillin]	12.5	50	3.1	1.6	1.6	50	0.8
CC(=O)N[C@@H](Cc1ccc(O)cc1)C(=O)Nc1ccc(-c2ncc(C(=O)N[C@@H](C(=O)N[C@@H]3C(=O)N4[C@@H]3SC(C)(C)[C@@H]4C(=O)O)c3ccc(O)cc3)c(O)n2)cc1 [N-Acetyl-L-Tyrosyl, N-[2-[4-(N-Acetyl-L-tyrosylamino)phenyl]-4-hydroxy-5-pyrimidinylcarbonyl]amoxicillin]	12.5	50	3.1	1.6	3.1	12.5	1.6
CC(=O)NCCC(=O)Nc1ccc(-c2ncc(C(=O)N[C@@H](C(=O)N[C@@H]3C(=O)N4[C@@H]3SC(C)(C)[C@@H]4C(=O)O)c3ccc(O)cc3)c(O)n2)cc1 [N-Acetyl-beta-Alanyl, N-[2-[4-(N-Acetyl-beta-alanylamino)phenyl]-4-hydroxy-5-pyrimidinylcarbonyl]amoxicillin]	6.3	25	0.8	0.8	0.8	6.3	0.4
CC(=O)NC(C)(C)C(=O)Nc1ccc(-c2ncc(C(=O)N[C@@H](C(=O)N[C@@H]3C(=O)N4[C@@H]3SC(C)(C)[C@@H]4C(=O)O)c3ccc(O)cc3)c(O)n2)cc1 [N-Acetylamino Isobutyryl, N-[2-[4-(alpha-Acetamidoisobutyrylamino)phenyl]-4-hydroxy-5-pyrimidinylcarbonyl]amoxicillin]	6.3	> 50	0.4	0.8	0.8	12.5	1.6
CC1(C)S[C@@H]2[C@H](NC(=O)[C@H](NC(=O)c3cnc(-c4ccc(NC(=O)CNC(N)=O)cc4)nc3O)c3ccc(O)cc3)C(=O)N2[C@H]1C(=O)O [N-Carbamoyl Glycyl, N-[2-[4-(N-Carbamoylglycylamino)phenyl]-4-hydroxy-5-pyrimidinylcarbonyl]amoxicillin]	25	50	3.1	0.8	1.6	25	0.8
